# Experimental data taken from ChEMBL document CHEMBL4507273 (2021).
# Assays:
# [1] = target: Tyrosine-protein kinase ZAP-70 (Homo sapiens) (UniProt P43403); conditions: Compound concentration 1000.0 nM
# [2] = target: Cyclin-dependent kinase-like 3 (Homo sapiens) (UniProt Q8IVW4); conditions: Compound concentration 1000.0 nM
# [3] = system: Proto-oncogene tyrosine-protein kinase receptor Ret (Homo sapiens), P07949 [V804M]; conditions: Compound concentration 1000.0 nM
# [4] = target: Protein kinase C eta type (Homo sapiens) (UniProt P24723); conditions: Compound concentration 1000.0 nM
# [5] = target: Cyclin-dependent kinase 7 (Homo sapiens) (UniProt P50613); conditions: Compound concentration 1000.0 nM
# [6] = system: Receptor-type tyrosine-protein kinase FLT3 (Homo sapiens), P36888 [K663Q]; conditions: Compound concentration 1000.0 nM
# [7] = target: Sigma intracellular receptor 2 (Homo sapiens, UniProt Q5BJF2); assay: GPCRScan assay: inhibition of Sigma 2; parameters: radioligand conc. used [nm] 5.0, parental cells HEKT
# Sigma intracellular receptor 2, sequence (Q5BJF2 whole entry): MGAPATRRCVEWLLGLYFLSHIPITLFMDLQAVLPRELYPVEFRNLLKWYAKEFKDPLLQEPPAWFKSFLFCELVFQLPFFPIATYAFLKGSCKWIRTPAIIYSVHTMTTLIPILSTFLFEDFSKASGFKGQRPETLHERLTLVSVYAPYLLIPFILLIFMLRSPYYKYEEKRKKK
# [8] = target: Serine/threonine-protein kinase Nek10 (Homo sapiens) (UniProt Q6ZWH5); conditions: Compound concentration 1000.0 nM
# [9] = system: Serine/threonine-protein kinase B-raf (Homo sapiens), P15056 [V600E]; conditions: Compound concentration 1000.0 nM
# Serine/threonine-protein kinase B-raf (Homo sapiens), P15056 [V600E], sequence (P15056 whole entry V600E): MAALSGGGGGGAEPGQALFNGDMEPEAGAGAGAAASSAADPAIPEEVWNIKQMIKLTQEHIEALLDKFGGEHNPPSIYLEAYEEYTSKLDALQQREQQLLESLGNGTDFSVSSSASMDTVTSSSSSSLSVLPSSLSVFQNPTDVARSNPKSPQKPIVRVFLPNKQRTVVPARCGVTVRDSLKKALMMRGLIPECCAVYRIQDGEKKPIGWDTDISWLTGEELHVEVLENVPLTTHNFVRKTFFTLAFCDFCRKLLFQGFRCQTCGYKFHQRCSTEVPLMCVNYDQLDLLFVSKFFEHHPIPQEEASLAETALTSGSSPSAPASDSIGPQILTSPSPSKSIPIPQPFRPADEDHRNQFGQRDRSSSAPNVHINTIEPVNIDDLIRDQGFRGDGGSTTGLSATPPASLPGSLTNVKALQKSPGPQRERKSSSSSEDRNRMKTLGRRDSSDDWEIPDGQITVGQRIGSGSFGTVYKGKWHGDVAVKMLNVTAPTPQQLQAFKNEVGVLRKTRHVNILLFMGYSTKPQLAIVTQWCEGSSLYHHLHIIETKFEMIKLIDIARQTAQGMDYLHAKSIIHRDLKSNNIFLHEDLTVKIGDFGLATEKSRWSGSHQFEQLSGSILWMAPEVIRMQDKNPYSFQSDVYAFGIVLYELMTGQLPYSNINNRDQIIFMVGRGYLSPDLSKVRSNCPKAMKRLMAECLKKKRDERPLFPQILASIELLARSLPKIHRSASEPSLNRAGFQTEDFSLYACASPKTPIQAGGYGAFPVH
# [10] = target: Citron Rho-interacting kinase (Homo sapiens) (UniProt O14578); conditions: Compound concentration 1000.0 nM
# [11] = target: Cyclin-dependent kinase 11A (Homo sapiens) (UniProt Q9UQ88); conditions: Compound concentration 1000.0 nM
# [12] = target: T1, Alpha-1D adrenergic receptor (Homo sapiens, UniProt P25100); assay: GPCRScan assay: inhibition of Alpha1D; parameters: radioligand conc. used [nm] 0.3 – 1.0, parental cells stable
# T1 sequence (P25100 whole entry): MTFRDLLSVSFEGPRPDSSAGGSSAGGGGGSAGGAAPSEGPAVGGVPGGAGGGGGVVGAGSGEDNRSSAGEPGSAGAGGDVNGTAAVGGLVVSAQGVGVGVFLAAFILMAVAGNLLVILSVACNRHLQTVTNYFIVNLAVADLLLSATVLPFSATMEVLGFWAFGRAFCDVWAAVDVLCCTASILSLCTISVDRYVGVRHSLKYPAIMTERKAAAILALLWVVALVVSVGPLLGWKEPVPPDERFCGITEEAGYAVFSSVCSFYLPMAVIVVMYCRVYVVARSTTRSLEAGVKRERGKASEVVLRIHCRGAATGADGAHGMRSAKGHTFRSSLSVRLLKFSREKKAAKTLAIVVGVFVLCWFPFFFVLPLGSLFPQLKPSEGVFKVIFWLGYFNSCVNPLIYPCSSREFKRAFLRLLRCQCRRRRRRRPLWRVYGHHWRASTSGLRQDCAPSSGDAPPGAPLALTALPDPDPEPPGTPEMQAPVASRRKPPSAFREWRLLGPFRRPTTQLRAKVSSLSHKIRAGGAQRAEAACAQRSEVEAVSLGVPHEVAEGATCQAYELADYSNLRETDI
# [13] = target: Serine/threonine-protein kinase Nek9 (Homo sapiens) (UniProt Q8TD19); conditions: Compound concentration 1000.0 nM
# [14] = target: Mitogen-activated protein kinase kinase kinase kinase 3 (Homo sapiens) (UniProt Q8IVH8); conditions: Compound concentration 1000.0 nM
# [15] = target: Serine/threonine-protein kinase ULK2 (Homo sapiens) (UniProt Q8IYT8); conditions: Compound concentration 1000.0 nM
# [16] = target: Aurora kinase A (Homo sapiens) (UniProt O14965); conditions: Compound concentration 1000.0 nM
# [17] = target: Dual specificity mitogen-activated protein kinase kinase 2 (Homo sapiens) (UniProt P36507); conditions: Compound concentration 1000.0 nM
# D(3) dopamine receptor = D(3) dopamine receptor (Homo sapiens, UniProt P35462); assay: GPCRScan assay: inhibition of D3; parameters: radioligand conc. used [nm] 0.5 – 1.8, parental cells HEKT
# D(3) dopamine receptor, sequence (P35462 whole entry): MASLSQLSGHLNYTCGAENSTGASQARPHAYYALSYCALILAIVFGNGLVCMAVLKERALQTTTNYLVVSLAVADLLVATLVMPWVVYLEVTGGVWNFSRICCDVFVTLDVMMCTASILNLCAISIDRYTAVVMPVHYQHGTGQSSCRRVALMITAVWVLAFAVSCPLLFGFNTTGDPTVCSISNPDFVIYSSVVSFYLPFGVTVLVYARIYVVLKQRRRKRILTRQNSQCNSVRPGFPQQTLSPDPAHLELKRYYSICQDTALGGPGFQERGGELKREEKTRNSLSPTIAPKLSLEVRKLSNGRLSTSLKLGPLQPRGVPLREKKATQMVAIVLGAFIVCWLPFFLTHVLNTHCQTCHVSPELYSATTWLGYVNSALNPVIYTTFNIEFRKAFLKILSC
# [18] = system: Receptor-type tyrosine-protein kinase FLT3 (Homo sapiens), P36888 [R834Q]; conditions: Compound concentration 1000.0 nM
# [19] = target: Tyrosine-protein kinase TXK (Homo sapiens) (UniProt P42681); conditions: Compound concentration 1000.0 nM
# [20] = target: Discoidin domain-containing receptor 2 (Homo sapiens) (UniProt Q16832); conditions: Compound concentration 1000.0 nM
# Discoidin domain-containing receptor 2 (Homo sapiens), sequence (Q16832 whole entry, the tested form may be a part): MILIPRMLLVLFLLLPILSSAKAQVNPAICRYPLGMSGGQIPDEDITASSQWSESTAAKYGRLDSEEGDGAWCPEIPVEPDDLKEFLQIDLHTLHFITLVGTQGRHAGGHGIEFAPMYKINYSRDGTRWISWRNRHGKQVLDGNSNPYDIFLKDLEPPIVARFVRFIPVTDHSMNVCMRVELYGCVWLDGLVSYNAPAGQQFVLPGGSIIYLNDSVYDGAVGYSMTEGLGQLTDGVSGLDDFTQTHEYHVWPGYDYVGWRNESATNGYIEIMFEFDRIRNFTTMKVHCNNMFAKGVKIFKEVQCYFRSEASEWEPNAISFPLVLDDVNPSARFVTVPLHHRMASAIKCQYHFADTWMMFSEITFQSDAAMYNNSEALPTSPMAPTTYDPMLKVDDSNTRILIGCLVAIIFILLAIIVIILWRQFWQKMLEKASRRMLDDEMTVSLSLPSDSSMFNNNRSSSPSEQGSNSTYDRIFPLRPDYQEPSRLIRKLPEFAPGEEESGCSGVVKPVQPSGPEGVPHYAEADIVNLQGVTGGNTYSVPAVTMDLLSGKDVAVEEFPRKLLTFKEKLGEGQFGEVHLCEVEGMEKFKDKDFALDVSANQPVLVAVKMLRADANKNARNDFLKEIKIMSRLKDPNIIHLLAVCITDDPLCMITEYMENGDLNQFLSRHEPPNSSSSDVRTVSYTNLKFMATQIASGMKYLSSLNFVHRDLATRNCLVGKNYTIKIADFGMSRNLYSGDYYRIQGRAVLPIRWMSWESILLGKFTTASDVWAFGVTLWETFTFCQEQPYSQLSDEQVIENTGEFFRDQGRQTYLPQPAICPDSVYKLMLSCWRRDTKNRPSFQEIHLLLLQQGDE
# [21] = target: Uncharacterized serine/threonine-protein kinase SBK3 (Homo sapiens) (UniProt P0C264); conditions: Compound concentration 1000.0 nM
# Uncharacterized serine/threonine-protein kinase SBK3 (Homo sapiens), sequence (P0C264 whole entry): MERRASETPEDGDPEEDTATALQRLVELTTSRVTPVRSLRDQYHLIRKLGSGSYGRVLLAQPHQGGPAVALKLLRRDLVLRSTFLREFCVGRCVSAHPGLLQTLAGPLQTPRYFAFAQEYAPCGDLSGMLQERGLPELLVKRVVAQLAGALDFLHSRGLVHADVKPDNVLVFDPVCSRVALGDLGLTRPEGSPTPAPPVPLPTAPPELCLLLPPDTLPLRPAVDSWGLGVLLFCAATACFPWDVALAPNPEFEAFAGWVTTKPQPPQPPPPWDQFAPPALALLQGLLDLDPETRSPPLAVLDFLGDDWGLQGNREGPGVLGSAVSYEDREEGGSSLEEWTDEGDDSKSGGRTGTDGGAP
# [22] = target: Serine/threonine-protein kinase OSR1 (Homo sapiens) (UniProt O95747); conditions: Compound concentration 1000.0 nM
# [23] = target: Mitogen-activated protein kinase kinase kinase 19 (Homo sapiens) (UniProt Q56UN5); conditions: Compound concentration 1000.0 nM
# [24] = target: Sodium-dependent serotonin transporter (Homo sapiens, UniProt P31645); conditions: Compound concentration 10.0 uM
# Sodium-dependent serotonin transporter, sequence (P31645 whole entry, looked up): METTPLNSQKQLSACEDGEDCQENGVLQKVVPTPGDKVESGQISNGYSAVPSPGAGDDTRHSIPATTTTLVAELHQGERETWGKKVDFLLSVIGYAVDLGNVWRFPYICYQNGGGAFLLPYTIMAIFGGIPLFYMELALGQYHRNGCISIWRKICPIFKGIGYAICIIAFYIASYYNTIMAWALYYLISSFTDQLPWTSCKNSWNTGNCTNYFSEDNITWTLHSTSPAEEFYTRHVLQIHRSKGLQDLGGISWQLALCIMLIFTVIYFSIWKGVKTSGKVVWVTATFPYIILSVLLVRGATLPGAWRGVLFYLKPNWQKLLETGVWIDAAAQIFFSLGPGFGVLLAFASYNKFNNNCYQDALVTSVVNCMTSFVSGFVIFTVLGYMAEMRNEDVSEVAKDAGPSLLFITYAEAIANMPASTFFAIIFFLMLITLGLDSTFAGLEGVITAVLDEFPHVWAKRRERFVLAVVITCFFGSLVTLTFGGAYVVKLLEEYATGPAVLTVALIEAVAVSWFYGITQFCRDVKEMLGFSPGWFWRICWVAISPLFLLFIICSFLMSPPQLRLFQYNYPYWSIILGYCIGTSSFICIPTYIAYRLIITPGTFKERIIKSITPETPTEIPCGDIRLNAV
# [25] = target: Serine/threonine-protein kinase 38 (Homo sapiens) (UniProt Q15208); conditions: Compound concentration 1000.0 nM
# Serine/threonine-protein kinase 38 (Homo sapiens), sequence (Q15208 2-465 limits assumed): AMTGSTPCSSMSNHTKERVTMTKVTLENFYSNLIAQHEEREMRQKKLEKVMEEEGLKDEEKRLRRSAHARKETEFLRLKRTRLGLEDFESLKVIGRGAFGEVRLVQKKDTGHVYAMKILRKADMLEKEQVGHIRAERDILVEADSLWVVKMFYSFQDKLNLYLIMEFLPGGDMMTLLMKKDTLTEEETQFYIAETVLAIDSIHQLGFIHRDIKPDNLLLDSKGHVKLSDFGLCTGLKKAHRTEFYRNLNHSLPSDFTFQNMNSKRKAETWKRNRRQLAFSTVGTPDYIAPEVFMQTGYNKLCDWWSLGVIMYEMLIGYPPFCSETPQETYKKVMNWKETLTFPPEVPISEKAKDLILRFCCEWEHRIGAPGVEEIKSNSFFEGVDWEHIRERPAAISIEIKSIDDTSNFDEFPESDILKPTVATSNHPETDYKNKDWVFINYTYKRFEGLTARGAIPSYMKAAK
# [26] = target: Mitogen-activated protein kinase 7 (Homo sapiens) (UniProt Q13164); conditions: Compound concentration 1000.0 nM
# [27] = target: Myosin light chain kinase (Homo sapiens) (UniProt Q32MK0); conditions: Compound concentration 1000.0 nM
# [28] = target: Vascular endothelial growth factor receptor 1 (Homo sapiens) (UniProt P17948); conditions: Compound concentration 1000.0 nM
# [29] = target: STE20-like serine/threonine-protein kinase (Homo sapiens) (UniProt Q9H2G2); conditions: Compound concentration 1000.0 nM
# [30] = target: Bone morphogenetic protein receptor type-1A (Homo sapiens) (UniProt P36894); conditions: Compound concentration 1000.0 nM
# [31] = target: Serine/threonine-protein kinase WNK2 (Homo sapiens) (UniProt Q9Y3S1); conditions: Compound concentration 1000.0 nM
# [32] = target: Death-associated protein kinase 1 (Homo sapiens) (UniProt P53355); conditions: Compound concentration 1000.0 nM
# [33] = target: Tyrosine-protein kinase ABL1 (Homo sapiens) (UniProt P00519); conditions: Compound concentration 1000.0 nM
# [34] = target: Peripheral plasma membrane protein CASK (Homo sapiens) (UniProt O14936); conditions: Compound concentration 1000.0 nM
# [35] = target: Serine/threonine-protein kinase Nek4 (Homo sapiens) (UniProt P51957); conditions: Compound concentration 1000.0 nM
# [36] = target: Cyclin-dependent kinase 4 (Homo sapiens) (UniProt P11802); conditions: Compound concentration 1000.0 nM
# [37] = target: Serine/threonine-protein kinase DCLK3 (Homo sapiens) (UniProt Q9C098); conditions: Compound concentration 1000.0 nM
# Cyclin-dependent kinase-like 3 (Homo sapiens), sequence (Q8IVW4 whole entry, looked up): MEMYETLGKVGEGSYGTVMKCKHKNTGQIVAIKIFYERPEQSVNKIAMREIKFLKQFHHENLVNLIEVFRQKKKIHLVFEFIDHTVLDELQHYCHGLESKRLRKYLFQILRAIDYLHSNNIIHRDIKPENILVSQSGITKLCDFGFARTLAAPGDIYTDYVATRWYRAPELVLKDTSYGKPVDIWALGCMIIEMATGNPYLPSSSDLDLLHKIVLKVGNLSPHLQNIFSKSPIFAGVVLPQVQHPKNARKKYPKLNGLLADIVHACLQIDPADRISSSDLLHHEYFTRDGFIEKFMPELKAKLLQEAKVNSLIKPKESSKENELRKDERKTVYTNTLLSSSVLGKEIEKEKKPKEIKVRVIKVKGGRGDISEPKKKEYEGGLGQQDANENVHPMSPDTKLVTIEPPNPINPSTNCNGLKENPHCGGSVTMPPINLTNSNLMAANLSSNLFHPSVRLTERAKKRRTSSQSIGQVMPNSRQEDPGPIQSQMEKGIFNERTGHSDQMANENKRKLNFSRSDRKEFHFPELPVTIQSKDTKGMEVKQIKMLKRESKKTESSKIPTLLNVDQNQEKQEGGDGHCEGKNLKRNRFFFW
# Tyrosine-protein kinase ZAP-70 (Homo sapiens), sequence (P43403 whole entry): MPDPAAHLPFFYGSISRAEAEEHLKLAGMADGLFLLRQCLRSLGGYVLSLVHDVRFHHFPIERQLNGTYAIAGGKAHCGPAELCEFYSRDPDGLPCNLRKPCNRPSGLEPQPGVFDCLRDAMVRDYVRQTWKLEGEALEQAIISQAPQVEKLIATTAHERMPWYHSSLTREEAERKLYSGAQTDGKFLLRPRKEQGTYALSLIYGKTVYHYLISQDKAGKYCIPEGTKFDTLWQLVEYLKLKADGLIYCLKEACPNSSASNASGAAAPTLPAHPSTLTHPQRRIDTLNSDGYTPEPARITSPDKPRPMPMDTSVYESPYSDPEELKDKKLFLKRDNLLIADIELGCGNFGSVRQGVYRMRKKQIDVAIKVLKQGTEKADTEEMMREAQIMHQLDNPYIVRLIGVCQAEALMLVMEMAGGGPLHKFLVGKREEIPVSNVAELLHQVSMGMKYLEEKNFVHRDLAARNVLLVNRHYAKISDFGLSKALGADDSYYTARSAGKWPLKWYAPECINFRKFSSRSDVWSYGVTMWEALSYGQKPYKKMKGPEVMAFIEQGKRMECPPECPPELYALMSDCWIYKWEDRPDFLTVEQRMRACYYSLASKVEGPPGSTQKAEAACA
SMILES,residual activity [1],residual activity [2],residual activity [3],residual activity [4],residual activity [5],residual activity [6],Ki ([7]; read-out: Ki),residual activity [8],residual activity [9],residual activity [10],residual activity [11],Ki ([12]; read-out: Ki),residual activity [13],residual activity [14],residual activity [15],residual activity [16],residual activity [17],Ki (D(3) dopamine receptor),residual activity [18],residual activity [19],other results
CNCc1ccccc1-c1csc([C@H](C)Nc2nc(C)nc3cc(OC)c(OC)cc23)c1 [BAY-294],100%,97%,100%,100%,61%,93%,638 nM,78%,84%,100%,100%,397 nM,100%,100%,100%,73%,100%,869 nM,82%,100%,Ki ([7]; read-out: pKi (converted)): 610 nM; Ki ([12]; read-out: pKi (converted)): 389 nM; residual activity [20]: 94%; residual activity [21]: 100%; residual activity [22]: 78%; residual activity [23]: 78%; inhibition [24]: 56.2%; residual activity [25]: 87%; residual activity [26]: 100%; residual activity [27]: 100%; residual activity [28]: 91%; residual activity [29]: 100%; residual activity [30]: 100%; residual activity [31]: 99%; residual activity [32]: 100%; residual activity [33]: 100%; residual activity [34]: 71%; residual activity [35]: 83%; residual activity [36]: 96%; residual activity [37]: 100%
CNCc1ccccc1-c1csc([C@@H](C)Nc2nc(C)nc3cc(OC)c(OC)cc23)c1 [BAY-293],87%,99%,90%,100%,63%,77%,180 nM,73%,100%,92%,91%,338 nM,100%,99%,100%,73%,82%,936 nM,79%,76%,residual activity [20]: 92%; residual activity [21]: 100%; residual activity [22]: 67%; residual activity [23]: 71%; inhibition [24]: 47.4%; residual activity [25]: 60%; residual activity [26]: 97%; residual activity [27]: 96%; residual activity [28]: 87%; residual activity [29]: 97%; residual activity [30]: 91%; residual activity [31]: 72%; residual activity [32]: 99%; residual activity [33]: 97%; residual activity [34]: 81%; residual activity [35]: 83%; residual activity [36]: 90%; residual activity [37]: 95%
